We go through two molecules from US20040224995A1 (University of North Texas Health Science Center at Fort …, priority 2003, published 2004).

The structures appear in SMILES notation.

One data set relates to HT-22 cells. Kind of data set: HT-22 cell viability during glutamate exposure (calcein AM assay). The data set is classed as cell-based. To be noted: for neuroprotection after withdrawal of compound-containing medium: 24 h preincubation, medium washed away, then glutamate (15 mM); for concentration at which toxicity was observed: HT-22, glutamate experiments; for neuroprotection against glutamate insult (cell viability): HT-22, 24 h preincubation before glutamate. From the text:
Although not wanting to be bound by theory, the toxicity of glutamate in HT-22 (32) and C6 glioma (33) cell lines is mediated through oxidative stress. HT-22 cells lack ionotropic N-methyl-D-aspartate (“NMDA”) glutamate receptors, and the glutamate-induced cell death appears to occur via a slow onset oxidative stress (32,34,35). Glutamate blocks cystine uptake by inhibiting the glutamate/cystine antiporter in both HT-22 (32) and C6 glioma (33) cell lines. Since cysteine is required for glutathione (“GSH”) synthesis, the intracellular concentration of GSH decreases as a consequence. BSO depletes intracellular glutathione by inhibiting γ-glutamylcysteine synthetase, the rate-limiting enzyme in glutathione synthesis (33). […] Troglitazone further protected HT-22 (FIG. 14) and RGC-5 (FIG. 15) against BSO. The cell viability was taken at time points around about 14 to 24 hours post-insult time. In some of the experiments, the viability of cells was determined using 2.5 μM calcein AM assay in phosphate-buffered saline (PBS 1×). After 25 minutes of incubation, live cells were distinguished by the presence of intracellular esterase activity, which cleaves the calcein AM dye, producing a bright green fluorescence, as shown in FIG. 22. Viability was measured in Relative Fluorescent Units (“RFU”), and expressed as percentage of vehicle-treated control values.
15d-PGJ2 and two TZD's (e.g. troglitazone and ciglitazone) were tested for their ability to protect HT-22 cells against glutamate toxicity. […] HT-22 cells were treated with 15-dPGJ2 twenty-four hours prior to a glutamate insult (15 mM). […] The data of FIG. 24 was quantified using the calcein AM assay (see FIG. 22). Results are expressed in % survival of the control (non-glutamate-treated) cultures. DMSO received the vehicle only for 15d-PGJ2. Shown are mean±SEM for 6. The asterisk (“*”) indicates p<0.05 vs. respective control.
In order to conduct these experiments, the following compounds: PGA1; PGA2; PGJ2; Δ^12PGJ2; and 15d-PGJ2 were ordered from Biomol, Plymouth Meeting, Pa. HT-22, an immortalized mouse hippocampal cell line, C6 rat glioma, RGC-5 retinal ganglion cells were used. Cells were grown to confluence in DMEM media, and supplemented with 10% charcoal/dextran-treated fetal bovine serum (“FBS”), and […] gentamycin at 37° C. under 95% air, 5% CO2. HT-22, C6, and RGC-5 cells were plated at a density of 50,000, 35,000, and 10,000 cells/ml, respectively, in 96-well plates. Wells were pre-treated with cyclopentenone PGs at various times prior to being subjected to glutamate, hydrogen peroxide (H2O2), or BSO insults.
The WY-14643, Ciglitazone, Troglitazone, 9-cis retinoic acid, and 15d-PGJ2 compounds were purchased from Biomol (Plymouth Meeting, Pa.). L-165041 and L-783483 were kindly provided by Merck Laboratories. The cell lines used were HT-22, an immortalized mouse hippocampal cell line, and SK—N—SH, a human neuroblastoma cell line. The HT-22 cells were obtained from David Schubert (Salk Institute, San Diego, Calif.). The HT-22 line was originally selected from HT-4 cells based on glutamate sensitivity. HT-4 cells were immortalized from primary hippocampal neurons using a temperature-sensitive SV-40 T antigen (Morimoto and Koshland, 1990). SK—N—SH were obtained from ATCC (Manassas, Va.). HT-22 and SK—N—SH cells were grown to confluence in DMEM and RPMI-1640 media, respectively, and supplemented with 10% charcoal/dextran-treated fetal bovine serum (FBS), and 5 mg/ml gentamycin at 37° C. under 95% air, 5% CO2. HT-22 cells were plated at a density of 50,000 cells/ml (5,000 cells/well), and SK—N—SH were plated at a density of 120,000 to 150,000 cells/ml (12,000 to 15,000 cells/well) in 96-well plates. In most studies, wells were pre-treated with PPAR ligands over a wide dose range at various times prior to being subjected to either glutamate, hydrogen peroxide (H2O2), or serum deprivation insults. In some studies, the insults were applied prior to the addition of the PPAR ligand. […]

For the next data set, the system named is C6 Glioma cells. In words: C6 glioma glutamate cytotoxicity. The data set is classed as cell-based, rat. To be noted: dose dependent manner. The procedure:
The in vitro model used for oxidative cell death was based upon glutamate, hydrogen peroxide, and buthionine sulfoximine (“BSO”) administration to HT-22 mouse hippocampal, C6 rat glioma, and RGC-5 retinal ganglion cell lines. The ease that the above cell lines are cultured is well known in the art of cell culture. Additionally, these cell lines are suitable for screening a various number of compounds described in the present invention.
Although not wanting to be bound by theory, the toxicity of glutamate in HT-22 (32) and C6 glioma (33) cell lines is mediated through oxidative stress. HT-22 cells lack ionotropic N-methyl-D-aspartate (“NMDA”) glutamate receptors, and the glutamate-induced cell death appears to occur via a slow onset oxidative stress (32,34,35). Glutamate blocks cystine uptake by inhibiting the glutamate/cystine antiporter in both HT-22 (32) and C6 glioma (33) cell lines. […] In some of the experiments, the viability of cells was determined using 2.5 μM calcein AM assay in phosphate-buffered saline (PBS 1×). After 25 minutes of incubation, live cells were distinguished by the presence of intracellular esterase activity, which cleaves the calcein AM dye, producing a bright green fluorescence, as shown in FIG. 22. Viability was measured in Relative Fluorescent Units (“RFU”), and expressed as percentage of vehicle-treated control values. […]

Consider `CCCCC/C=C/C=C1/C(=O)C=C[C@@H]1C/C=C\CCCC(=O)O` [15d-PGJ2, 15-deoxy-Δ^12,14-PGJ2], for which, in the data set on HT-22 cells, the “neuroprotection after withdrawal of compound-containing medium” value was “protected in a dose dependent manner”, the “concentration at which toxicity was observed” value is not below 10 µM and the “neuroprotection against glutamate insult (cell viability)” value is recorded as “dose-dependent protection”. Further, the “neuroprotective effect of prostaglandins against glutamate toxicity” value with HT-22 cells (added 24 h before glutamate (15 mM), viability 15 h later) is “potent neuroprotective effect”. Further, in the data set on HT-22 cells (added at same time as glutamate or up to ten hours thereafter), the “neuroprotection when added with or after glutamate” value is recorded as “failed to display any neuroprotective effects”. For the same molecule, in the data set on HT-22 cells (preincubation before glutamate (15 mM), 5 μM), the “exposure time required to achieve significant neuroprotection” value is “four to six”. Moreover, the “protection against glutamate toxicity” value in the data set with C6 Glioma cells is “protected”.
For the molecule `Cc1c(C)c2c(c(C)c1O)CCC(C)(COc1ccc(CC3SC(=O)NC3=O)cc1)O2` (centres unmarked) [troglitazone], in the data set on HT-22 cells, the “neuroprotection after withdrawal of compound-containing medium” value is “loss of neuroprotection”, the “concentration at which toxicity was observed” value is not below 20 µM and the “neuroprotection against glutamate insult (cell viability)” value is listed as “dose-dependent protection”. The “protection versus time of administration prior to glutamate insult” value with HT-22 cells (administered 0 to 10 hours prior to insult) was “equally protective”. Moreover, in the data set on HT-22 cells (post-treatment 0 to 10 hours after glutamate), the “time post glutamate insult up to which neuroprotective effects remained unaltered” value is “up to 6 hours”. In addition, the “protection at 8 and 10 hours post glutamate insult” value in the data set with HT-22 cells (post-treatment, extent of protection decreased) is “still significantly protected”. Also, the “protection against glutamate toxicity” value in the data set with C6 Glioma cells is listed as “protected”.
